# System: FGFR
# Assay: Kinase inhibition, cell-free enzymatic assay
# Type: biochemical
# Conditions: 1 mM ATP
smiles,measurement,value
"Cc1ccc(F)c(NC(=O)Nc2ccc(-c3cccc4[nH]nc(N)c34)cc2)c1 [RTK Inhibitor, N-[4-(3-amino-1H-indazol-4-yl)phenyl]-N′-(2-fluoro-5-methylphenyl) urea]",IC50,> 12.5 µM

# — patent US8912236B2 (Alcon Research, Ltd., priority 2009, dated 2014)
